Data published in publication PMC9855884, “Glycosylated Lipopeptides—Synthesis and Evaluation of Antimicrobial Activity and Cytotoxicity” (Biomolecules, 2023).
In brackets after ≈: the same amount, converted by molar mass. Where a SMILES comes first, the peptide text is derived from it. The star is where a group is joined. βGlcNAc = CC(=O)N[C@@H]1[C@@H](O)[C@H](O)[C@@H](CO)O[C@H]1*; Stearoyl = CCCCCCCCCCCCCCCCCC(=O)*

Legend:
[1] = Determination of peptide hydrophobicity with RP-HPLC (adjusted retention time); format: physicochemical; conditions: RP-HPLC as measure of hydrophobicity; Waters X-Bridge Shield RP-18 3.0 × 100 mm, 3.5 μm; linear 20–80% acetonitrile in water over 30 min, 0.1% TFA; 0.5 mL/min; 25.0 °C; peptide 1 g/L in water (0.1% TFA); UV 214 nm; triplicate
Experimental: To determine peptide hydrophobicity, a Waters Alliance e2695 system with a Waters 2998 PDA Detector was used. All analyses were carried out on a Waters X-Bridge Shield RP-18 column (3.0 × 100 mm, 3.5 μm particle size, 130 Å pore size). The peptides were dissolved in water (0.1% TFA, v/v) up to a concentration of 1 g/L. UV detection at 214 nm was used, and samples (10 μL) were eluted with a linear 20–80% acetonitrile gradient in deionized water over 30 min at 25.0 ± 0.1 °C. The mobile phase flow rate was 0.5 mL/min. Both eluents contained 0.1% (v/v) of TFA. Each peptide sample was analyzed in triplicate. Maximum standard deviation and coefficient of variation were 0.046 and 0.23%, respectively.
After synthesis and purification, all the products were analyzed with MS and HPLC to confirm purity and identity of the compounds. […] The chromatographic analyses were performed with RP-HPLC; retention time refers to hydrophobicity of the lipopeptide.

[2] = test system: E. faecium ATCC 700221; format: cell-based, Enterococcus faecium; conditions: ATCC 700221, 18 h
Experimental: (§1) The Acinetobacter baumannii ATCC BAA-1605, Enterococcus faecium ATCC 700221, Klebsiella aerogenes ATCC 13048, Klebsiella pneumoniae ATCC 700603, Pseudomonas aeruginosa ATCC 9027, Staphylococcus aureus ATCC 33591, Candida glabrata ATCC 15126, strains were acquired from the American Type Culture Collection (ATCC). All the strains were stored at −80 °C in Roti-Store cryo vials and were transferred into fresh Mueller–Hinton broth (MHB, Becton Dickinson, Warsaw, Poland) for bacteria or RPMI-1640 (Sigma-Aldrich, Steinheim, Germany) for fungi before the tests and incubated for 24 h at 37 °C. Then, the cultures were seeded on the Mueller–Hinton agar (BioMaxima, Lublin, Poland) or Sabouraud dextrose agar (SDA, BioMaxima, Lublin, Poland) plates, respectively, and incubated as just mentioned. These agar cultures were used for further microbiological assays. Cell densities for all assays were adjusted spectrophotometrically (Multiskan GO Microplate Spectrophotometer, Thermo Fisher Scientific, Vantaa, Finland) at 600 and 530 nm for bacteria and fungi, respectively.
(§2) The MICs were determined using a broth microdilution method according to the Clinical and Laboratory Standard Institute guidelines. For this purpose, initial inoculums of bacteria (5 × 10^5 CFU/mL) in MHB and yeasts (2 × 10^3 CFU/mL) in RPMI-1640 with 2% D-glucose were exposed to the ranging concentration of lipopeptides (1–512 μg/mL) and incubated at 37 °C for 18 h and 24 h, respectively. The experiments were conducted on 96-well microtiter polystyrene plates (Kartell, Italy). The growth was assessed visually after incubation and the MIC was assumed as the lowest peptide concentration at which a noticeable growth of microorganisms was inhibited. All experiments were conducted in triplicate.

[3] = test system: S. aureus ATCC 33591; format: cell-based, Staphylococcus aureus; conditions: ATCC 33591, 18 h
Experimental: as §1, §2

[4] = test system: K. pneumoniae ATCC 700603; format: cell-based, Klebsiella pneumoniae; conditions: ATCC 700603, 18 h
Experimental: as §1, §2

[5] = test system: S. aureus biofilm; format: cell-based, Staphylococcus aureus; conditions: 24 h
Experimental: as §1
(§3) The MBECs were determined as previously described, using 96-well polystyrene flat-bottom plates. For this purpose, 24 h cultures of microorganisms were diluted to obtain a final density of 5.0 × 10^5 CFU/mL and 2.0 × 10^5 CFU/mL of bacteria and fungi, respectively. Microorganisms were diluted in MHB or RPMI-1640 with 2% D-glucose (bacteria and fungi, respectively). Briefly, 100 µL of cell suspension was added into the test plates. After 24 h of incubation at 37 °C, the wells were rinsed three times with a phosphate buffer saline (PBS, pH 7.4) to remove non-adherent cells. Subsequently, 100 μL of the test compounds over the concentration range (1–512 μg/mL) were added to each well. After 24 h of incubation at 37 °C, 20 μL of a cell viability reagent was added (resazurin, 4 g/L; Sigma Aldrich, St. Louis, MO, USA). The MBEC was read after 1 h. The determined values were recorded as the lowest concentration at which the reduction of resazurin (from blue to pink) […]. All experiments were conducted in triplicate.

[6] = test system: A. baumannii biofilm; format: cell-based, Acinetobacter baumannii; conditions: 24 h
Experimental: as §1, §3

[7] = test system: P. aeruginosa biofilm; format: cell-based, Pseudomonas aeruginosa; conditions: 24 h
Experimental: as §1, §3

[8] = test system: C. glabrata biofilm; format: cell-based, Candida glabrata; conditions: 24 h
Experimental: as §1, §3

[9] = test system: human red blood cells (RBCs); test: Hemolysis assay; format: cell-based; conditions: human RBCs 4% (v/v) in PBS, 60 min, 37 °C, absorbance 540 nm, 1–512 µg/mL; triplicate
Experimental: The hemolysis assay was conducted using a procedure described previously. For this purpose, fresh human red blood cells (RBCs) with EDTA anticoagulant were washed three times with phosphate-buffer saline (PBS) using centrifugation at 800× g for 10 min and resuspended in PBS. Then, the stock solution of RBCs was added to serial dilution of peptides on 96-well polystyrene plates to reach a final volume of 100 µL with 4% concentration of erythrocytes (v/v) over the concentration range of 1–512 µg/mL of the tested compounds. The control wells for the 0% and 100% hemolysis consisted of RBCs suspended in PBS and 1% of Triton X–100, respectively. Subsequently, the plates were incubated for 60 min at 37 °C and then centrifuged at 800× g for 10 min at 4 °C (Sorvall ST 16R Centrifuge, Thermo Scientific, Osterode am Harz, Germany). After centrifugation, the supernatant was carefully […] to new microtiter plates and the release of hemoglobin was monitored through absorbance measurements at 540 nm (Multiskan™ GO Microplate Spectrophotometer, Thermo Scientific). All experiments were conducted in triplicate.
The lipopeptides were tested against human erythrocytes in order to evaluate their hemolytic activity. Moreover, selectivity indexes (SI) were calculated by dividing the HC50 by MIC. […] In some cases, glycosylation led to suppressed toxicity, e.g., a comparison of C14 peptides analogs: 1–3 and 10–12. On the other hand, an increase in toxicity of C18 analogs (7–9 vs. 16–18) was found for glycosylated USCLs. For this reason, SI was calculated to provide a correlation between antimicrobial activity and toxicity. […] Among gUSCLs: 10 and 11 with C14 fatty acid and 16–18 should be highlighted owing to their high selectivity against E. fecium and C. glabrata.

Adjusted Retention Time [1] | MIC [2] | MIC [3] | MIC [4] | Compound | MBEC [5] | MBEC [6] | MBEC [7] | MBEC [8] | HC50 (hemolytic activity) [9]
24.04 min | 8 µg/mL (≈ 11.7 µM) | 8 µg/mL (≈ 11.7 µM) | 16 µg/mL (≈ 23.4 µM) | CCCCCCCCCCCCCCCCCC(=O)N[C@@H](CCCNC(=N)N)C(=O)N[C@@H](CCCNC(=N)N)C(=O)N[C@@H](CO)C(N)=O [Peptide 9, C18-RRS-NH2] (Stearoyl-Arg-Arg-Ser-NH2) | 256 µg/mL | 512 µg/mL | >512 µg/mL | 128 µg/mL | 94.31 ± 2.64 µg/mL
24.13 min | 8 µg/mL (≈ 11.7 µM) | 16 µg/mL (≈ 23.4 µM) | 32 µg/mL (≈ 46.9 µM) | CCCCCCCCCCCCCCCCCC(=O)N[C@@H](CCCNC(=N)N)C(=O)N[C@@H](CO)C(=O)N[C@@H](CCCNC(=N)N)C(N)=O [Peptide 8, C18-RSR-NH2] (Stearoyl-Arg-Ser-Arg-NH2) | 256 µg/mL | 512 µg/mL | >512 µg/mL | 128 µg/mL | 335.12 ± 73.39 µg/mL
24.78 min | 8 µg/mL (≈ 11.7 µM) | 16 µg/mL (≈ 23.4 µM) | 16 µg/mL (≈ 23.4 µM) | CCCCCCCCCCCCCCCCCC(=O)N[C@@H](CO)C(=O)N[C@@H](CCCNC(=N)N)C(=O)N[C@@H](CCCNC(=N)N)C(N)=O [Peptide 7, C18-SRR-NH2] (Stearoyl-Ser-Arg-Arg-NH2) | 512 µg/mL | 512 µg/mL | 512 µg/mL | 128 µg/mL | 82.31 ± 1.36 µg/mL

More lines, now with the values behind:

Compound | Adjusted Retention Time [1] | MIC [2] | MIC [3] | MIC [4] | MBEC [5] | MBEC [6] | MBEC [7] | MBEC [8] | HC50 (hemolytic activity) [9]
CCCCCCCCCCCCCCCCCC(=O)N[C@@H](CO[C@@H]1O[C@H](CO)[C@@H](O)[C@H](O)[C@H]1NC(C)=O)C(=O)N[C@@H](CCCNC(=N)N)C(=O)N[C@@H](CCCNC(=N)N)C(N)=O [Peptide 16, C18-S(GlcNAc)RR-NH2] (Stearoyl-Ser(βGlcNAc)-Arg-Arg-NH2) | 22.12 min | 16 µg/mL (≈ 18.1 µM) | 16 µg/mL (≈ 18.1 µM) | 64 µg/mL (≈ 72.2 µM) | 256 µg/mL | 512 µg/mL | 512 µg/mL | 64 µg/mL | 77.45 ± 1.13 µg/mL
CCCCCCCCCCCCCCCCCC(=O)N[C@@H](CCCNC(=N)N)C(=O)N[C@@H](CO[C@@H]1O[C@H](CO)[C@@H](O)[C@H](O)[C@H]1NC(C)=O)C(=O)N[C@@H](CCCNC(=N)N)C(N)=O [Peptide 17, C18-RS(GlcNAc)R-NH2] (Stearoyl-Arg-Ser(βGlcNAc)-Arg-NH2) | 22.50 min | 8 µg/mL (≈ 9.03 µM) | 16 µg/mL (≈ 18.1 µM) | 16 µg/mL (≈ 18.1 µM) | 128 µg/mL | 512 µg/mL | >512 µg/mL | 64 µg/mL | 45.25 ± 0.59 µg/mL
